Data reported in patent publication EP0745595A1, “3-(3-Aryloxyphenyl)-1-(substituted methyl)-s-triazine-2,4,6-oxo or thiotrione herbicidal agents” (American Cyanamid Company, priority 1995, dated 1996).

Columns and labels:
Format in all cases: in vivo
[1] = system: CASSIA OBTUSIFOLIA, L.; test: Postemergence herbicidal evaluation, CASOB (Sicklepod); design: key to CASOB rating / Herbicidal effect rating, CASOB / CASOB: 0-9 visual rating scale vs untreated control
Procedure, shortened: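 Greenhouse postemergence test. Seedlings (~2 wk) sprayed at 40 psi; dose ~0.125–0.500 kg/ha in acetone/water (1:1), 0.5% TWEEN 20. Scored 0–9 at 4–5 wk.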

[2] = system: CHENOPODIUM ALBUM, L.; test: Postemergence herbicidal evaluation, CHEAL (Lambsquarters, Common)
Procedure, shortened: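 Seedlings of common lambsquarters (Chenopodium album) were raised in jiffy flats for roughly two weeks, then sprayed postemergence through a nozzle at 40 psi with test compound dispersed in 50/50 acetone/water containing 0.5% TWEEN®20 surfactant. Plants were kept on greenhouse benches under standard care and rated visually on a 0-9 scale versus controls.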

[3] = system: IPOMOEA SPP.; test: Postemergence herbicidal evaluation, IPOSS (Morningglory spp.)
Procedure, shortened: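 Seedlings of morningglory (Ipomoea spp.) were raised in jiffy flats for roughly two weeks. They were then sprayed postemergence through a nozzle at 40 psi with test compound dispersed in 50/50 acetone/water containing 0.5% TWEEN®20 surfactant. Plants were kept on greenhouse benches under standard care and visually rated 0-9 against controls four to five weeks after treatment.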

[4] = system: SETARIA VIRIDIS, (L) BEAU; test: Postemergence herbicidal evaluation, SETVI (Foxtail, Green); design: key to SETVI rating / Herbicidal effect rating, SETVI / SETVI: 0-9 visual rating scale vs untreated control
Procedure, shortened: (§1)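 Visual 0–9 scores reflect stand, vigor, malformation, size, chlorosis and overall appearance relative to control, taken 4–5 weeks after spraying two-week-old seedlings with about 0.125–0.500 kg/ha compound in acetone/water/TWEEN 20.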

[5] = system: AMBROSIA ARTEMISIIFOLIA, L.; test: Preemergence herbicidal evaluation, AMBEL (Ragweed, Common); conditions: rated four to five weeks after treatment
Procedure, shortened: (§2)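 Rated 0-9 by visual comparison with control (stand, vigor, malformation, size, chlorosis, overall appearance) four to five weeks after preemergence soil spray. Dose equivalent to about 0.125 to 0.50 kg per hectare, applied in aqueous acetone to freshly seeded cups kept in greenhouse.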

[6] = system: CASSIA OBTUSIFOLIA, L.; test: Preemergence herbicidal evaluation, CASOB (Sicklepod); conditions: rated four to five weeks after treatment
Procedure, shortened: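 Seeds of various monocot and dicot plants, including sicklepod, were each mixed with potting soil and sown on roughly one inch of soil in separate pint cups for preemergence testing. Treated cups were kept on greenhouse benches, watered and maintained conventionally. Four to five weeks after treatment, each cup was visually rated on a 0-9 scale against a control.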

[7] = system: CHENOPODIUM ALBUM, L.; test: Preemergence herbicidal evaluation, CHEAL (Lambsquarters, Common); conditions: rated four to five weeks after treatment
Procedure, shortened: as §2

[8] = system: GLYCINE MAX(L) MERR. CV. WILLIAMS; test: Preemergence herbicidal evaluation, GLXMAW (Soybean, Williams); conditions: rated four to five weeks after treatment
Procedure, shortened: as §2

[9] = system: ORYZA SATIVA, L. TEBONNET; test: Preemergence herbicidal evaluation, ORYSAT (Rice, Tebonnet); conditions: rated four to five weeks after treatment
Text: (§3) Results of herbicide evaluation are expressed on a rating scale (0-9). The scale is based upon a visual observation of plant stand, vigor, malformation, size, chlorosis and overall plant appearance as compared with a control.
(§4) The preemergence herbicidal activity of the test compounds of the present invention is exemplified by the following tests in which the seeds of a variety of monocotyledonous and dicotyledonous plants are separately mixed with potting soil and planted on top of approximately one inch of soil in separate pint cups. […] The treated cups are then placed on greenhouse benches, watered and cared for in accordance with conventional greenhouse procedures. From four to five weeks after treatment, the tests are terminated and each cup is examined and rated according to the rating system provided in Example 40.
(§5) The compounds evaluated are reported by compound number given in Example 40.

[10] = system: TRITICUM AESTIVUM, CV. APOLLO; test: Preemergence herbicidal evaluation, TRZAWO (Wheat, Winter, CV. APOLLO); conditions: rated four to five weeks after treatment
Text: as §3, §4, §5

[11] = system: ZEA MAYS L.; test: Preemergence herbicidal evaluation, ZEAMX (Corn, Field); conditions: rated four to five weeks after treatment
Procedure, shortened: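 Corn (Zea mays) seeds were mixed with potting soil and planted on about one inch of soil in pint cups, then treated preemergence. Cups were kept on greenhouse benches, watered and maintained conventionally, and after four to five weeks were visually rated on a 0-9 scale versus an untreated control.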

[12] = system: ORYZA SATIVA, L. TEBONNET; test: Rice tolerance to post-transplant applications under flooded paddy conditions, ORYSAT (Rice, Tebonnet); conditions: post-transplant rice, 3-4 weeks after treatment
Procedure, shortened: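 Post-transplant paddy test: compound applied 3 d after transplanting to flooded soil (1.5-3 cm water), ~0.063-0.5 kg/ha a.i., 50/50 aq/acetone. Silt loam, 2 × 10-d seedlings/pot. Greenhouse 3-4 wk, visual 0-9 score vs control.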

[13] = system: AMBROSIA ARTEMISIIFOLIA, L.; test: Postemergence herbicidal evaluation, AMBEL (Ragweed, Common)
Procedure, shortened: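 Common ragweed (Ambrosia artemisiifolia) seedlings were raised in jiffy flats for roughly two weeks, then sprayed postemergence through a nozzle at 40 psi with the test compound dispersed in 50/50 acetone/water carrying 0.5% TWEEN®20. The plants were kept on greenhouse benches under conventional care. Four to five weeks later, injury was rated visually on a 0-9 scale, and repeat tests were averaged.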

[14] = system: ECHINOCHLOA CRUS-GALLI, (L) BEAU; test: Postemergence herbicidal evaluation, ECHCG (Barnyardgrass); design: key to ECHCG rating / Herbicidal effect rating, ECHCG / ECHCG: 0-9 visual rating scale vs untreated control
Procedure, shortened: as §1

[15] = system: ABUTILON THEOPHRASTI, MEDIC.; test: Preemergence herbicidal evaluation, ABUTH (Velvetleaf); conditions: rated four to five weeks after treatment
Text: as §3, §4, §5

[16] = system: IPOMOEA SPP.; test: Preemergence herbicidal evaluation, IPOSS (Morningglory spp.); conditions: rated four to five weeks after treatment
Text: as §3, §4, §5

[17] = system: ECHINOCHLOA CRUS-GALLI, (L) BEAU; test: Preemergence herbicidal evaluation, ECHCG (Barnyardgrass); conditions: rated four to five weeks after treatment
Procedure, shortened: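 Barnyardgrass seeds were mixed with potting soil and planted on about one inch of soil in pint cups for preemergence testing. Treated cups were kept on greenhouse benches, watered and maintained by standard greenhouse practice. After four to five weeks, each cup was visually rated on a 0-9 scale against an untreated control.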

[18] = system: SETARIA VIRIDIS, (L) BEAU; test: Preemergence herbicidal evaluation, SETVI (Foxtail, Green); conditions: rated four to five weeks after treatment
Text: as §3, §4, §5

[19] = system: ECHINOCHLOA ORYZOIDES (ARD.)FRITSCH; test: Preemergence weed control under flooded paddy conditions, ECHORC (Watergrass (Calif.)); conditions: 0.500 kg/ha, preemergence, 3-4 weeks after treatment
Procedure, shortened: (§6)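 Flooded paddy preemergence test: seeds/propagating organs in top 0.5 cm silt loam, water held 1.5-3 cm above soil. Dosing by pipette into flood water, aqueous/acetone 50/50 v/v, ~0.5, 0.25, 0.125, 0.063 kg/ha a.i. Greenhouse; read at 3-4 wk, 0-9 visual scale.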

[20] = system: CYPERUS IRIA; test: Preemergence weed control under flooded paddy conditions, CYPIR (Rice Flatsedge); conditions: 0.500 kg/ha, preemergence, 3-4 weeks after treatment
Procedure, shortened: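 Seeds or propagating organs of rice flatsedge were planted in the top 0.5 cm of silt loam soil in 32 oz. plastic containers, 10.5 cm across and without drainage holes. Water was kept 1.5 to 3 cm above the soil throughout. Treated containers were kept on greenhouse benches, and herbicidal effect was visually rated on a 0-9 scale against a control.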

[21] = system: CYPERUS SEROTINUS, ROTTB.; test: Preemergence weed control under flooded paddy conditions, CYPSE (Flatsedge); conditions: 0.500 kg/ha, preemergence, 3-4 weeks after treatment
Procedure, shortened: as §6

[22] = system: […], PRESL.; test: Preemergence weed control under flooded paddy conditions, MOOVA (Monochoria); conditions: 0.500 kg/ha, preemergence, 3-4 weeks after treatment
Procedure, shortened: as §6

[23] = system: SAGITTARIA PYGMAEA, L.; test: Preemergence weed control under flooded paddy conditions, SAGPY (Arrowhead (Pygmaea)); conditions: 0.500 kg/ha, preemergence, 3-4 weeks after treatment
Procedure, shortened: as §6

CC(C)OC(=O)Cn1c(=O)n(C)c(=O)n(-c2cc(Oc3ncc(C(F)(F)F)cc3Cl)ccc2Br)c1=O [Compound 44]
CASOB rating ([1]; Rate 0.125 kg/ha): 9.0 | CASOB rating ([1]; Rate 0.250 kg/ha): 9.0 | CASOB rating ([1]; Rate 0.500 kg/ha): 9.0 | CHEAL rating ([2]; Rate 0.125 kg/ha): 9.0 | CHEAL rating ([2]; Rate 0.250 kg/ha): 9.0 | CHEAL rating ([2]; Rate 0.500 kg/ha): 9.0 | IPOSS rating ([3]; Rate 0.125 kg/ha): 9.0 | IPOSS rating ([3]; Rate 0.250 kg/ha): 9.0 | IPOSS rating ([3]; Rate 0.500 kg/ha): 9.0 | SETVI rating ([4]; Rate 0.125 kg/ha): 9.0 | SETVI rating ([4]; Rate 0.250 kg/ha): 9.0 | SETVI rating ([4]; Rate 0.500 kg/ha): 9.0 | AMBEL herbicidal rating ([5]; Rate 0.125 kg/ha): 0.0 | AMBEL herbicidal rating ([5]; Rate 0.250 kg/ha): 0.0 | AMBEL herbicidal rating ([5]; Rate 0.500 kg/ha): 0.0 | CASOB herbicidal rating ([6]; Rate 0.500 kg/ha): 0.0 | CHEAL herbicidal rating ([7]; Rate 0.125 kg/ha): 9.0 | CHEAL herbicidal rating ([7]; Rate 0.250 kg/ha): 9.0 | CHEAL herbicidal rating ([7]; Rate 0.500 kg/ha): 9.0 | GLXMAW herbicidal rating ([8]; Rate 0.125 kg/ha): 0.0 | GLXMAW herbicidal rating ([8]; Rate 0.250 kg/ha): 0.0 | GLXMAW herbicidal rating ([8]; Rate 0.500 kg/ha): 0.0 | ORYSAT herbicidal rating ([9]; Rate 0.125 kg/ha): 0.0 | ORYSAT herbicidal rating ([9]; Rate 0.250 kg/ha): 0.0 | ORYSAT herbicidal rating ([9]; Rate 0.500 kg/ha): 0.0 | TRZAWO herbicidal rating ([10]; Rate 0.125 kg/ha): 0.0 | TRZAWO herbicidal rating ([10]; Rate 0.250 kg/ha): 0.0 | TRZAWO herbicidal rating ([10]; Rate 0.500 kg/ha): 0.0 | ZEAMX herbicidal rating ([11]; Rate 0.125 kg/ha): 0.0 | ZEAMX herbicidal rating ([11]; Rate 0.250 kg/ha): 0.0 | ZEAMX herbicidal rating ([11]; Rate 0.500 kg/ha): 0.0 | Herbicidal effect rating, ORYSAT ([12]; 0.063 kg/ha): 1.0 | Herbicidal effect rating, ORYSAT ([12]; 0.125 kg/ha): 1.0 | Herbicidal effect rating, ORYSAT ([12]; 0.250 kg/ha): 2.0 | Herbicidal effect rating, ORYSAT ([12]; 0.500 kg/ha): 3.0

Cn1c(=O)n(CC(N)=O)c(=O)n(-c2cccc(Oc3ccc(C(F)(F)F)cc3Cl)c2)c1=O [Compound 46, 3-{5-[(2-Chloro-α,α,α-trifluoro-p-tolyl)-oxy]phenyl}tetrahydro-5-methyl-2,4,6-trioxo-s-triazine-1(2H)-acetamide]
AMBEL rating ([13]; Rate 0.125 kg/ha): 0.0 | AMBEL rating ([13]; Rate 0.250 kg/ha): 0.0 | AMBEL rating ([13]; Rate 0.500 kg/ha): 0.0 | CASOB rating ([1]; Rate 0.125 kg/ha): 0.0 | CASOB rating ([1]; Rate 0.250 kg/ha): 0.0 | CASOB rating ([1]; Rate 0.500 kg/ha): 0.0 | ECHCG rating ([14]; Rate 0.125 kg/ha): 0.0 | ECHCG rating ([14]; Rate 0.250 kg/ha): 0.0 | ECHCG rating ([14]; Rate 0.500 kg/ha): 0.0 | SETVI rating ([4]; Rate 0.125 kg/ha): 0.0 | SETVI rating ([4]; Rate 0.250 kg/ha): 0.0 | SETVI rating ([4]; Rate 0.500 kg/ha): 0.0 | ABUTH herbicidal rating ([15]; Rate 0.125 kg/ha): 0.0 | ABUTH herbicidal rating ([15]; Rate 0.250 kg/ha): 0.0 | ABUTH herbicidal rating ([15]; Rate 0.500 kg/ha): 0.0 | AMBEL herbicidal rating ([5]; Rate 0.125 kg/ha): 0.0 | AMBEL herbicidal rating ([5]; Rate 0.250 kg/ha): 0.0 | AMBEL herbicidal rating ([5]; Rate 0.500 kg/ha): 0.0 | CASOB herbicidal rating ([6]; Rate 0.125 kg/ha): 0.0 | CASOB herbicidal rating ([6]; Rate 0.250 kg/ha): 0.0 | CASOB herbicidal rating ([6]; Rate 0.500 kg/ha): 0.0 | IPOSS herbicidal rating ([16]; Rate 0.125 kg/ha): 0.0 | IPOSS herbicidal rating ([16]; Rate 0.250 kg/ha): 0.0 | IPOSS herbicidal rating ([16]; Rate 0.500 kg/ha): 0.0 | ECHCG herbicidal rating ([17]; Rate 0.125 kg/ha): 0.0 | ECHCG herbicidal rating ([17]; Rate 0.250 kg/ha): 0.0 | ECHCG herbicidal rating ([17]; Rate 0.500 kg/ha): 0.0 | SETVI herbicidal rating ([18]; Rate 0.125 kg/ha): 0.0 | SETVI herbicidal rating ([18]; Rate 0.250 kg/ha): 0.0 | SETVI herbicidal rating ([18]; Rate 0.500 kg/ha): 0.0 | GLXMAW herbicidal rating ([8]; Rate 0.125 kg/ha): 1.0 | GLXMAW herbicidal rating ([8]; Rate 0.250 kg/ha): 1.0 | GLXMAW herbicidal rating ([8]; Rate 0.500 kg/ha): 1.0 | TRZAWO herbicidal rating ([10]; Rate 0.125 kg/ha): 1.0 | TRZAWO herbicidal rating ([10]; Rate 0.250 kg/ha): 1.0 | TRZAWO herbicidal rating ([10]; Rate 0.500 kg/ha): 1.0 | Herbicidal effect rating, ECHORC [19]: 0.0 | Herbicidal effect rating, CYPIR [20]: 0.0 | Herbicidal effect rating, CYPSE [21]: 0.0 | Herbicidal effect rating, MOOVA [22]: 0.0 | Herbicidal effect rating, SAGPY [23]: 0.0 | Herbicidal effect rating, ORYSAT ([12]; 0.500 kg/ha): 0.0
